Results published in patent US11608320B2, “Oxazolidinone hydroxamic acid derivatives” (KUWAIT UNIVERSITY, priority 2020, dated 2023).
Like-named read-outs stand apart in the source and are kept apart here.

Legend:
[1] = molecular target: T1, recombinant human 5-LO enzyme (Homo sapiens, UniProt P09917); assay: Direct 5-LO inhibitory activity in a cell-free assay (H2DCF-DA fluorescence); type: biochemical
T1 sequence (P09917 1-674): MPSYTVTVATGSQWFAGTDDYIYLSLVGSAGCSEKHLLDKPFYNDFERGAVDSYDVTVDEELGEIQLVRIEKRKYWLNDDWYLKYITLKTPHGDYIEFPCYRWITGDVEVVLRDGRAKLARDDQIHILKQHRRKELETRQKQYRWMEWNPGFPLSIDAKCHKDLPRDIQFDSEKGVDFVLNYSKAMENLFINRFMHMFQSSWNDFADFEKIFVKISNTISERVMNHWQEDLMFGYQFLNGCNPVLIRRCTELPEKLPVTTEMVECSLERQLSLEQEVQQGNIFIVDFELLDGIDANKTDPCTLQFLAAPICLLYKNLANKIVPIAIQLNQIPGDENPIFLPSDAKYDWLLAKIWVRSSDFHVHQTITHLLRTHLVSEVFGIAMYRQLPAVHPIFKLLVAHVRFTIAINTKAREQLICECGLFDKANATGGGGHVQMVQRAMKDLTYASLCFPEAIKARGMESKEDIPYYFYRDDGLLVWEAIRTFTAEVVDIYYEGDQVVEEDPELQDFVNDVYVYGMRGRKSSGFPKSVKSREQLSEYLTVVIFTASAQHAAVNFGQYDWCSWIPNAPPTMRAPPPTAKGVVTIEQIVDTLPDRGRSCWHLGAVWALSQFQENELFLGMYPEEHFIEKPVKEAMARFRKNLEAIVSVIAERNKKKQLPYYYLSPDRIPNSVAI
Method: H2DCF-DA (60 μM) was first pre-cleaved by incubating with 450 mU/ml recombinant human 5-LO enzyme in Tris buffer (containing 50 mM Tris, pH=7.5, 2 mM EDTA, 2 mM CaCl2), 1 mM dithiothreitol (DTT) and 0.6 U/ml glutathione peroxidase) for 10 min at room temperature. […] After 10 min incubation at room temperature, the reaction was started with the addition of 50 μl of the substrate solution (Tris buffer containing 20 μM ATP and 20 μM arachidonic acid). After a further 20 min, the reaction was terminated with 100 μl acetonitrile. Fluorescence was read at 500 nm excitation and 520 emission, with Novostar® microplate reader (BMG Labtech, Offenburg, Germany). Appropriate controls, including 100 μM nordihydroguaiaretic acid (NDGA), were included to isolate only the 5-LO-attributable, NDGA-inhibitable RFU values.

[2] = test system: 5-LO-dependent generation of leukotriene B4 (LTB4) from activated human whole blood; assay: Inhibition of LTB4 generation from LPS/FMLP-activated human whole blood; type: cell-based; settings: LPS-primed, FMLP-stimulated human whole blood; read-out: Inhibitory Activity IC50, Human whole blood LTB4
Method: Inhibition of LTB4 generation from human whole blood: All compounds were evaluated for inhibitory activity against 5-LO-dependent generation of leukotriene B4 (LTB4) from activated human whole blood. With ethical approval from the Health Sciences Center Ethical Committee of Kuwait University, heparinized fresh human blood samples from apparently healthy individuals were obtained from the Kuwait Central Blood Bank. Aliquots of 185 μl of whole blood were dispensed into each well of 96-well culture plate containing 5 μl of the priming agent, lipopolysaccharide (LPS) at a final concentration of 1 μg/ml. […] After further incubation for 15 min at 37° C., 5 μl of N-formylmethionyl-leucyl-phenylalanine (FMLP), at […] final concentration, was added to stimulate LT production. The reaction was stopped after 15 min, and the supernatants recovered by centrifugation and stored at −40° C. pending analysis of the LTB4 content.
(§1) Assay of released leukotrienes/β-hexoseaminidase enzyme: Appropriately diluted supernatants were assayed for the released LTs (LTB4 and LTC4), by the enzyme immunoassay (EIA) method using assay kits supplied by R&D Systems (Minneapolis, Minn., USA) and following the manufacturer's instructions.

[3] = test system: LTC4 release from isolated human monocytes; assay: Inhibition of LTC4 release from isolated human monocytes (A23187-stimulated); type: cell-based; settings: read-out: Inhibitory Activity IC50, Human monocyte LTC4
Method: Inhibition of LTC4 release from isolated human monocytes: Mononuclear cells were first isolated from heparinized fresh blood using the Ficoll-Hypaque gradient centrifugation method. Monocytes were subsequently purified by adherence to plastic according to standard protocols. The purity of the adherent monocytes (CD14+) was routinely confirmed by flow cytometry to be >95% and viability (by trypan blue exclusion method) was routinely >97%. Adherent monocytes were then washed and incubated in 190 μl culture medium RPMI-1640 supplemented with 100 U/ml penicillin, 100 μg/ml streptomycin and 10% heat-inactivated fetal bovine serum (Sigma-Aldrich, St Louis, Mo., USA). […] After a further incubation for 15 min, the culture supernatants were recovered by centrifugation and stored at −40° C. pending LTC4 determination.
as §1

[4] = test system: LTC4 release from IgE/antigen-activated mouse mast cells (BMMC); assay: Inhibition of LTC4 release in allergen/IgE-activated bone marrow-derived mouse mast cells; type: cell-based; settings: for IC50: IgE/antigen (DNP-BSA)-activated BMMC, read-out: Inhibitory Activity IC50, Mouse mast cell LTC4
Description: (§2) Inhibition of LTC4 release and degranulation in allergen/IgE-activated bone marrow-derived mouse mast cells (BMMC): Bone marrow-derived mast cells (BMMC) were generated from pathogen-free 5-7 week old male Balb/c mice according to the method of Davis et al., [2004] (Davis, B. J., et al., (2004), Journal of Immunology, 173: 6914-6920). Essentially, bone marrow cells were obtained by flushing of the femoral bone marrow and cultured in RPMI 1640 medium supplemented with 10% FBS, 100 U/ml penicillin, and 100 μg/ml streptomycin, 25 mM HEPES, 1.0 mM sodium pyruvate, 0.1 mM nonessential amino acids, 0.0035% 2-mercaptoethanol, and 30 ng/ml mouse recombinant IL-3, with culture medium replaced every two days. Cells were used after 4-8 weeks of culture, by which time at least 97% of the cells would have differentiated into mast cells.
(§3) The generated BMMCs were seeded at 5×10^4 cells/well in a 96-well flat-bottom culture plate and passively sensitized overnight with 0.5 μg/ml anti-DNP monoclonal IgE antibody (clone SPE-7, Sigma-Aldrich, St. Louis, Mo., USA). The cells were then washed twice to remove any unbound antibody and subsequently re-suspended in reaction buffer (135 mM NaCl, 5 mM KCl, 1.8 mM CaCl2), 1 mM MgCl2, 5.6 mM glucose, 0.05% BSA and 20 mM HEPES, pH 7.4). They were then pre-incubated with the test compounds (0.01-30 μM) or the solvent (0.05% DMSO) for 15 min before being stimulated with the specific antigen, DNP-BSA (30 ng/ml). After 30 min incubation at 37° C., the amount of LTC4 released into the supernatant (as index of 5-LO activity) was determined by ELISA as described below.
as §1

[5] = test system: degranulation of bone marrow-derived mouse mast cells; assay: Inhibition of degranulation (β-hexoseaminidase release) in allergen/IgE-activated BMMC; type: cell-based; settings: anti-DNP IgE sensitized, DNP-BSA 30 ng/ml, 30 min
Description: as §2
as §3, with “They were then pre-incubated with the test compounds (0.01-30 μM) or the solvent (0.05% DMSO) for 15 min before being stimulated with the specific antigen, DNP-BSA (30 ng/ml).” left out
The concurrently-released granular enzyme, β-hexoseaminidase (as index of degranulation) was determined as described below.
The beta-hexoseaminidase released into the supernatant by the degranulating BMMCs was determined colorimetrically using p-nitrophenyl-N-acetyl-β-D-glucosaminide as substrate. […] The absorbance of the colored product (p-nitrophenol) was then read at 405 nm in a microplate reader. Results were expressed as percentage of the total cell content (determined in cells lysed with 0.1% triton-x-100).

[6] = test system: zymosan-induced peritonitis; assay: Zymosan-induced peritoneal inflammation in mice; type: in vivo, mouse; settings: 30 min before zymosan i.p., peritoneal exudate at 2 h
Description: Inhibition of zymosan-induced peritoneal inflammation in mice: Female Balb/c mice, 6-8 weeks old, obtained from the Animal Resources Center of the Health Sciences Center, Kuwait University, were used. They were maintained under temperature-controlled conditions with an artificial 12-h light/dark cycle and allowed standard chow and water ad libitum. The study protocol was approved by the “Health Sciences Center Animal Welfare Committee” and complied with the “Guidelines for the Care and Use of Laboratory Animals” of the Health Sciences Centre, Kuwait University. The zymosan-induced peritonitis model-a recognized LT-mediated inflammatory reaction, described particularly in Hanke et al., 2013 ([…]., et al. (2013). Journal of medicinal chemistry, 56(22), 9031-9044) was used. […] After 30 min, all groups were injected intraperitonally with 0.2 ml of activated zymosan (2 mg/ml) except the control group that received 0.2 ml PBS. After 2 h, all animals were killed and the peritoneal exudate was collected by washing the cavity with 3 ml of heparinized (10 IU/ml) PBS.

[7] = cell-free, recombinant human 5-LO, read-out: Inhibitory Activity IC50, Human recomb. 5-LO

| SMILES | IC50 [1] | IC50 [2] | IC50 ([3]; Monocyte) | IC50 ([4]; Mus musculus) | IC50 [1, 7] | melting point | further results |
| --- | --- | --- | --- | --- | --- | --- | --- |
| CC(C)C(=O)N(O)C[C@H]1CN(c2ccc(N3CCOCC3)c(F)c2)C(=O)O1 [PH-205] | 3.9 µM | 2.3 µM | 14.1 µM | 13.8 µM | – | – | – |
| CC(=O)N(O)C[C@H]1CN(c2ccc(N3CCOCC3)c(F)c2)C(=O)O1 [PH-23] | > 30 µM | 3.3 µM | 18.7 µM | 20.7 µM | – | – | – |
| CC(C)C(=O)ON(C[C@H]1CN(c2ccc(N3CCOCC3)c(F)c2)C(=O)O1)C(=O)C(C)C [PH-204] | – | 10.7 µM | > 50 µM | 21.8 µM | > 30 µM | – | – |
| NC(=O)N(O)C[C@H]1CN(c2ccc(N3CCOCC3)c(F)c2)C(=O)O1 [PH-238, (R)-1-((3-(3-fluoro-4-morpholinophenyl)-2-oxooxazolidin-5-yl)methyl)-1-hydroxyurea] | – | 7.9 µM | 30.7 µM | 23.8 µM | 14.7 µM | 125 to 128 °C | – |
| CC(c1cc2ccccc2s1)N(O)C(N)=O (racemic) [Zileuton, (±)1-(1-(benzo[b]thiophen-2-yl)ethyl)-1-hydroxyurea, reference compound] | – | – | – | – | – | – | Inhibition of generation of LTC4 from IgE/allergen-activated mast cells (FIG. 2A) ([4]; BMMC, anti-DNP IgE sensitized, DNP-BSA 30 ng/ml, 30 min): equally effective in inhibiting the generation of LTC4; Inhibition of degranulation (release of granular β-hexoseaminidase) (FIG. 2B) [5]: only the representative compounds were able to inhibit degranulation; Net Exudate Vol ([6]; 3 mg/kg s.c.): 0.14 ± 0.04 mL; Total Cell No ([6]; 3 mg/kg s.c.): 16.7 ± 2.8 ×10^6; Total LTC4 ([6]; 3 mg/kg s.c.): 71.0 ± 12.4 ng; Net Exudate Vol ([6]; 10 mg/kg s.c.): 0.20 ± 0.07 mL; Total Cell No ([6]; 10 mg/kg s.c.): 24.9 ± 2.1 ×10^6; Total LTC4 ([6]; 10 mg/kg s.c.): 97.2 ± 47.3 ng; Net Exudate Vol ([6]; 30 mg/kg s.c.): no significant effect on exudate volume; Total Cell No ([6]; 30 mg/kg s.c.): 19.1 ± 4.4 ×10^6; Total LTC4 ([6]; 30 mg/kg s.c.): 48.3 ± 9.8 ng; Net Exudate Vol ([6]; 30 mg/kg s.c., listed as Zil): 0.10 ± 0.05 mL |
| CCCCC(=O)N(O)C[C@H]1CN(c2ccc(N3CCOCC3)c(F)c2)C(=O)O1 [PH-241, (R)—N-((3-(3-fluoro-4-morpholinophenyl)-2-oxooxazolidin-5-yl)methyl)-N-hydroxypentanamide] | – | – | – | – | 3.3 µM | 121 to 122.5 °C | – |
| O=C(ON(C[C@H]1CN(c2ccc(N3CCOCC3)c(F)c2)C(=O)O1)C(=O)C1CC1)C1CC1 [PH-206] | – | 7.9 µM | > 50 µM | 37.3 µM | > 30 µM | – | – |
| CC(C)CC(=O)N(O)C[C@H]1CN(c2ccc(N3CCOCC3)c(F)c2)C(=O)O1 [PH-239, (R)—N-((3-(3-fluoro-4-morpholinophenyl)-2-oxooxazolidin-5-yl)methyl)-N-hydroxy-3-methylbutanamide] | – | – | – | – | 4.7 µM | 122 to 124.5 °C | – |
| O=C(C1CCC1)N(O)C[C@H]1CN(c2ccc(N3CCOCC3)c(F)c2)C(=O)O1 [PH-245, (R)—N-((3-(3-fluoro-4-morpholinophenyl)-2-oxooxazolidin-5-yl)methyl)-N-hydroxycyclobutane-carboxamide] | – | – | – | – | – | 132 to 133.5 °C | – |
| O=C(C1CC1)N(O)C[C@H]1CN(c2ccc(N3CCOCC3)c(F)c2)C(=O)O1 [PH-211] | 3.5 µM | 1.3 µM | 7.5 µM | 8.7 µM | – | – | – |
| O=C(C1CCCC1)N(O)C[C@H]1CN(c2ccc(N3CCOCC3)c(F)c2)C(=O)O1 [PH-244, (R)—N-((3-(3-fluoro-4-morpholinophenyl)-2-oxooxazolidin-5-yl)methyl)-N-hydroxycyclopentane-carboxamide] | – | – | – | – | – | 164.5 to 166.5 °C | – |
| CCCCCC(=O)ON(C[C@H]1CN(c2ccc(N3CCOCC3)c(F)c2)C(=O)O1)C(=O)CCCCC [PH-246] | – | 1.5 µM | – | – | 21.6 µM | – | IC50 [3]: 7.1 µM; IC50 [4]: 3.3 µM |
| CCC(=O)N(O)C[C@H]1CN(c2ccc(N3CCOCC3)c(F)c2)C(=O)O1 [PH-199] | 11.8 µM | 1.4 µM | 8.2 µM | 6.3 µM | – | – | – |
